# In paper PMC5442318, “Hundreds of dual-stage antimalarial molecules discovered by a functional gametocyte screen” (Nature Communications, 2017):
# Experiments:
# [1] = In vivo pharmacokinetic study, single oral dose; design: species or system CD-1 mice
# Experimental: Female CD-1 mice (Harlan Interfauna Iberica) at 8 weeks of age were used for single oral dose pharmacokinetic studies (n=2). Dosing solutions were prepared in 20% (v:v) Captisol in water, at a target dose of 50 mg kg^−1 (dose volume of 20 ml kg^−1). After oral dosing, blood samples (25 μl) were collected at 30 min, 1 h, 6 h and 8 h post dose for TCMDC-123767. All the blood samples were diluted with 25 μl of an aqueous solution of saponine 1% (w:v), and stored at −80 °C until analysis. Mice blood samples were analysed for each compound using a method upon protein precipitation followed by LC-MS/MS analysis (Applied Biosystems). Data analysis of the concentration time profiles was performed by noncompartmental methods by using WinNonLin Phoenix Version 6.3.
# [2] = test system: Plasmodium berghei asexual blood stages; test: In vivo antimalarial therapeutic efficacy, P. berghei murine model; design: species or system CD1 mice
# Experimental: Two out of the six compounds progressed to SMFA, TCMDC-123767 (cluster 30) and TCMDC-141154 (cluster 4), were evaluated in vivo in the Plasmodium berghei murine model. Selection criteria was based on the compound potencies in both asexual stages and gametocytes in the Pf FGAA, as well as on their transmission-blocking activity observed in the SMFA (Table 1). Owing to compound availability, TCMDC-141154 had to be replaced by a close analogue from cluster 4: TCMDC-140549 (Supplementary Data 3). Compounds were tested at 50 mg kg^−1 single dose 2-day oral treatment and efficacy was measured as a reduction of asexual blood stages parasitaemia greater than 40% compared with the vehicle-treated mice.
# Pathogen-free CD1 mice (Hsd:ICR) were obtained from Harlan Interfauna Iberica (Barcelona, Spain). Eight weeks old female CD-1 mice were infected intravenously with 10^7 infected erythrocytes (day 0). Dosing solutions were prepared in water containing 5% DMSO/20% Captisol, at a target dose of 50 mg kg^−1. Mice received two oral doses once a day according to their body weight (20 ml kg^−1) starting at day 2 after infection. Control mice received the same treatment schedule with the vehicle used for the compound preparation. Samples from mice peripheral blood were taken before starting treatment and 24 h after finishing the dosing, to measure parasitaemia by flow cytometry, using the YOYO-1 staining, to assess the reduction of parasitaemia compared with the vehicle-treated mice.
# [3] = test system: P. falciparum female gametes; test: Pf FGAA with compounds added 30 min after triggering gametocyte activation (gamete-targeting); format: cell-based, Plasmodium falciparum NF54; conditions: Plasmodium falciparum; 0h incubation time
# [4] = test system: P. falciparum oocysts in Anopheles stephensi mosquitoes; test: Standard membrane feeding assay (SMFA), indirect format; format: cell-based, Plasmodium falciparum; design: Oocyst Reduction Intensity %: concentration or dose not given beside the values; conditions: for Block in transmission (%) (reduction in oocyst prevalence): 1 or 2 μM (Pf FGAA IC90)
# Experimental: To validate the transmission-blocking potential of the TCAMS hits and assess the predictive value of the Pf FGAA as an in vitro high throughput surrogate of full mosquito feeding, the ‘gold-standard' SMFA was performed. Six compounds showing different biological profiles, belonging to four distinct chemical clusters, were selected based on their potencies in the Pf FGAA (Supplementary Data 1, Table 1). For each compound, inhibition of exflagellation of male gametocytes was measured. […] Compounds were tested in duplicate in 2–3 independent experiments in the indirect format of the assay, that is, gametocytes were exposed to the drug for 48 h before mosquito feeding to replicate a drug exposure time equivalent to that used in the Pf FGAA. […] By contrast, TCMDC-124559 reduced prevalence and intensity by <20% (Fig. 6a,b, respectively).
# Day-14 gametocyte cultures were plated in pre-warmed six-well-plates (5 ml per well) and were exposed to the compounds (1 μM or 2 μM final concentration) for 48 h at 37 °C (3% O2, 5% CO2 and 92% N2). Within this incubation time, 3 ml of media were removed after the first 24 h and replenished with the same volume of fresh media with compound added to obtain the required final concentration. After 48 h of total exposure, cultures were centrifuged at 2,500 g for 3 min at 37 °C, diluted 1:1 with 100% packed volume of fresh erythrocytes and finally formulated as artificial mosquito blood meals at 50% haematocrit with pre-warmed human serum. All steps were performed at 37 °C to avoid gametocyte activation. Four- to six-day old female Anopheles stephensi mosquitoes (GlaxoSmithKline Insectary) were fed for 30 min via Parafilm membrane attached to glass feeders (12831283, Fisher Scientific) connected to a 37 °C circulating water bath. Fed mosquitoes were maintained in an incubator at 27 °C and 75% relative humidity with 12 h light/dark cycles. Seven to eight days post-feeding, mosquitoes with fully developed ovaries were dissected for midguts, which were rinsed in a 0.2% mercury-dibromofluorescein (63869, Fluka) in water solution for 10 min. Total number of oocysts in individual midguts were counted using a light microscope (DM2000, Leica) under a × 10 objective. The percentage of block in transmission (reduction in prevalence) and the percentage of reduction in mean oocyst intensity were calculated after normalizing to the control DMSO-treated sample. Two to three independent SMFA experiments were performed and two internal duplicates of 40 mosquitoes each were used per compound. Mean oocyst intensities were not less than two oocysts per mosquito and the prevalence of infection ranged from 70 to 90% in the fed mosquito control groups. See complete experimental data set in Supplementary Table 1 and Supplementary Note 1.
# [5] = Intrinsic clearance assay; format: in vitro ADME; conditions: mouse liver microsomes, 0.5 μM
# Experimental: Intrinsic clearance (CLi) values were determined in mouse liver microsomes (M1000, XenoTech). Test compounds (final concentration 0.5 μM) were incubated at 37 °C for 45 min in 50 mM potassium phosphate buffer (pH 7.4) containing 0.5 mg microsomal protein per ml. The reaction was started by addition of cofactor NADPH ([…], Sigma) at 1 mM final concentration. The final concentration of organic solvent (DMSO) was limited to 0.25% of the final volume. At 0, 5, 15, 30, and 45 min, an aliquot (100 μl) was taken, quenched with acetonitrile containing an appropriate internal standard, and analysed by HPLC-MS/MS (Applied Biosystems). CLi was determined from the first-order elimination constant by nonlinear regression, corrected for the volume of the incubation and assuming […] mouse protein per g liver. Values for CLi were expressed as ml min^-1 per g liver.
# [6] = 48 h exposure before feeding, mean of 2-3 experiments
smiles,measurement,setting,value
FC(F)(F)c1cnc(Sc2nnc(-c3ccncc3)o2)c(Cl)c1 [TCMDC-123767],elimination in vivo,"[1]; oral 50 mg kg^−1, mouse",rapidly eliminated
same,exposure levels in blood,"[1]; oral 50 mg kg^−1, mouse",very low
same,last detected in blood above the lower limit of quantification (time post-administration),"[1]; oral 50 mg kg^−1, mouse blood, LLOQ 2.5 ng ml^−1",1 h
same,reduction of asexual blood stages parasitaemia (threshold 40% vs vehicle),"[2]; 50 mg kg^−1 single dose 2-day oral treatment, mice",not reduced above the threshold
same,ED50,"[2]; single dose 2-day treatment, oral, P. berghei mice",> 50 mg/kg
same,IC50,[3],> 20 µM
same,Block in transmission (%) (reduction in oocyst prevalence),[4]; [6],83%
same,Block in Transmission %,[4]; Expt 1,83%
same,Mean Oocyst Intensity in Test Compound,[4]; Expt 1,0.1
same,Oocyst Reduction Intensity %,[4]; Expt 1,97%
same,Prevalence of Infection in Test Compound,[4]; Expt 1,13.26
same,Block in Transmission %,[4]; Expt 2,85%
same,Mean Oocyst Intensity in Test Compound,[4]; Expt 2,0.1
same,Oocyst Reduction Intensity %,[4]; Expt 2,97%
same,Prevalence of Infection in Test Compound,[4]; Expt 2,13.2
same,in vitro microsome clearance,[5],7.9 ml min^−1 per g liver
CC1Cc2ccccc2N1S(=O)(=O)c1cccc(C(=O)Nc2nc(-c3ccccn3)cs2)c1 (stereo not shown) [TCMDC-124559],Block in transmission (%) (reduction in oocyst prevalence),[4]; [6],< 20%
same,reduction in oocyst intensity,"[4]; 48 h exposure before feeding, 1 or 2 μM, mean of 2-3 experiments",< 20%
same,Block in Transmission %,[4]; Expt 1,5%
same,Mean Oocyst Intensity in Test Compound,[4]; Expt 1,4.1
same,Oocyst Reduction Intensity %,[4]; Expt 1,24%
same,Prevalence of Infection in Test Compound,[4]; Expt 1,74.29
same,Block in Transmission %,[4]; Expt 2,0%
same,Mean Oocyst Intensity in Test Compound,[4]; Expt 2,2.5
same,Oocyst Reduction Intensity %,[4]; Expt 2,0%
same,Prevalence of Infection in Test Compound,[4]; Expt 2,70
same,Block in Transmission %,[4]; Expt 3,13%
same,Mean Oocyst Intensity in Test Compound,[4]; Expt 3,2.8
same,Oocyst Reduction Intensity %,[4]; Expt 3,39%
same,Prevalence of Infection in Test Compound,[4]; Expt 3,79.17
COc1cc(OC)cc(C(=O)Nc2nc(-c3ccccn3)cs2)c1 [TCMDC-125345],IC50,[3],4.95 µM
same,Block in transmission (%) (reduction in oocyst prevalence),[4]; [6],60%
same,Block in Transmission %,[4]; Expt 1,54%
same,Mean Oocyst Intensity in Test Compound,[4]; Expt 1,0.7
same,Oocyst Reduction Intensity %,[4]; Expt 1,88%
same,Prevalence of Infection in Test Compound,[4]; Expt 1,35.97
same,Block in Transmission %,[4]; Expt 2,58%
same,Mean Oocyst Intensity in Test Compound,[4]; Expt 2,1.0
same,Oocyst Reduction Intensity %,[4]; Expt 2,83%
same,Prevalence of Infection in Test Compound,[4]; Expt 2,38.22
CC(C)(CNC(=O)[C@H]1CCCCN1)c1nc(-c2ccc(Cl)c(O)c2)c(-c2ccncc2)[nH]1 [TCMDC-141070],IC50,[3],1.77 µM
same,Block in Transmission %,[4]; Expt 1,100%
same,Mean Oocyst Intensity in Test Compound,[4]; Expt 1,0
same,Oocyst Reduction Intensity %,[4]; Expt 1,100%
same,Prevalence of Infection in Test Compound,[4]; Expt 1,0
same,Block in Transmission %,[4]; Expt 2,78%
same,Mean Oocyst Intensity in Test Compound,[4]; Expt 2,0.2
same,Oocyst Reduction Intensity %,[4]; Expt 2,92%
same,Prevalence of Infection in Test Compound,[4]; Expt 2,15.4
same,Block in Transmission %,[4]; Expt 3,100%
same,Mean Oocyst Intensity in Test Compound,[4]; Expt 3,0
same,Oocyst Reduction Intensity %,[4]; Expt 3,100%
same,Prevalence of Infection in Test Compound,[4]; Expt 3,0
NCC1(c2nc(-c3ccc(Cl)c(O)c3)c(-c3ccncc3)[nH]2)CCCCC1 [TCMDC-141154],IC50,[3],0.25 µM
same,Block in transmission (%) (reduction in oocyst prevalence),[4]; [6],93%
same,Block in Transmission %,[4]; Expt 1,93%
same,Mean Oocyst Intensity in Test Compound,[4]; Expt 1,0.1
same,Oocyst Reduction Intensity %,[4]; Expt 1,99%
same,Prevalence of Infection in Test Compound,[4]; Expt 1,5.46
same,Block in Transmission %,[4]; Expt 2,93%
same,Mean Oocyst Intensity in Test Compound,[4]; Expt 2,0.1
same,Oocyst Reduction Intensity %,[4]; Expt 2,98%
same,Prevalence of Infection in Test Compound,[4]; Expt 2,6.16
Cc1ccc(Cn2nc(Cl)c(N3CCNCC3)cc2=O)cc1NC(=O)Nc1ccc(-c2ccccc2)cc1 [TCMDC-141698],IC50,[3],1.93 µM
same,Block in transmission (%) (reduction in oocyst prevalence),[4]; [6],82%
same,Block in Transmission %,[4]; Expt 1,82%
same,Mean Oocyst Intensity in Test Compound,[4]; Expt 1,0.2
same,Oocyst Reduction Intensity %,[4]; Expt 1,97%
same,Prevalence of Infection in Test Compound,[4]; Expt 1,14.04
same,Block in Transmission %,[4]; Expt 2,90%
same,Mean Oocyst Intensity in Test Compound,[4]; Expt 2,0.2
same,Oocyst Reduction Intensity %,[4]; Expt 2,97%
same,Prevalence of Infection in Test Compound,[4]; Expt 2,8.8
